How the values were obtained:
[1] = tested on: TNF-α-induced adhesion of monocytes to intestinal epithelial cells; assay: Inhibitory activity against TNF-α-induced adhesion of monocytes (U937) to intestinal epithelial cells (HT-29); format: cell-based, human; conditions: Homo sapiens, 1 μM test drug; HT-29/U937 adhesion, 10 ng/mL TNF-α; read-out: Inhibitory activity (%)
Method: HT-29 human colorectal cancer-derived epithelial cells and U937 human-derived monocytic cells were cultured in an RPMI 1640 medium containing 10% FBS and 1% penicillin/streptomycin (PS) at 37° C. under a condition of 5% CO2, and when the cells were grown to 80% or more in a culture flask, they were subcultured in a ratio of 1:3 to be used in this test. The HT-29 cells were cultured in a 24-well plate at a concentration of 2×10^5 cells/cm2, and then the medium only containing 1% FBS and 1% PS was pretreated with a test drug for 1 hour. Afterward, BCECF-loaded U937 cells by being treated with 10 μg/mL of BCECF-AM at 37° C. for 30 minutes and 10 ng/mL of TNF-α reacted with the HT-29 cells previously treated with the test drug at 37° C. for 3 hours. After the reaction, the medium was removed, and then the cells were washed with PBS twice to remove U937 cells that were not adhered. In a subsequent step, for cell lysis, 0.1% Triton X-100 (0.1 M Tris) was treated to allow a reaction at room temperature for 30 minutes, and then fluorescence was measured using a Fluostar optima microplate reader (BMG LABTECH, Germany) to quantify the cells (Carvalho et al., 1996; Thapa et al., 2008).

[2] = Cytotoxicity test (MTT), HT-29; format: cell-based; conditions: human, HT-29, 48 h; for viability at 48 h, 0.01 µM / viability at 48 h, 0.1 µM / viability at 48 h, 1 µM / viability at 48 h, 10 µM / viability at 48 h, 100 µM: HT-29 cells (colorectal cancer cell line), read-out: Cell viability (% of control); for IC50 at 48 h: HT-29 cells, read-out: IC50 (μM), cytotoxicity
Method: (§1) The human colorectal cancer cell line HT-29 and the monocytic blood cancer-derived cell line U937 were cultured in a RPMI 1640 medium containing 10% FBS and 1% penicillin/streptomycin (PS) at 37° C. under a condition of 5% CO2, and when the cells used herein were grown to 80% or more, they were subcultured at a ratio of 1:3.
(§2) Each type of cells were cultured in a 96 well plate at a concentration of 1×10^5 cells/cm2, treated with a test compound by concentration in a medium only containing 1% FBS and 1% PS at 37° C. under a condition of 5% CO2 for 48 hours and reacted with 5 mg/mL of a 3-[4,5-dimethylthiazol-2-yl]-2,5-diphenyltetrazolium bromide (MTT) reagent for 4 hours, and then the medium was completely removed, the cells were treated with DMSO, formazan crystals were dissolved for 30 minutes, and then absorbance was measured at 540 nm.

[3] = Cytotoxicity test (MTT), U937; format: cell-based; conditions: human, U937, 48 h; for viability at 48 h, 0.01 µM / viability at 48 h, 0.1 µM / viability at 48 h, 1 µM / viability at 48 h, 10 µM / viability at 48 h, 100 µM: U937 cells (monocytic blood cancer-derived cell line), read-out: Cell viability (% of control); for IC50 at 48 h: U937 cells
Method: as §1, §2

SMILES | inhibition at 1 µM [1] | viability at 48 h, 0.01 µM [2] | viability at 48 h, 0.1 µM [2] | viability at 48 h, 1 µM [2] | viability at 48 h, 10 µM [2] | viability at 48 h, 100 µM [2] | IC50 at 48 h [2] | viability at 48 h, 0.01 µM [3] | viability at 48 h, 0.1 µM [3] | viability at 48 h, 1 µM [3] | viability at 48 h, 10 µM [3] | viability at 48 h, 100 µM [3] | IC50 at 48 h [3]
Cc1nc(NC(=O)Nc2ccc(Cl)cc2)c(C)c(C)c1O [Compound 16-3, 1-(4-Chlorophenyl)-3-(5-hydroxy-3,4,6-trimethylpyridin-2-yl)urea] | 7.7% | 104 ± 6.1% | 102 ± 6.4% | 103 ± 11.1% | 89.3 ± 4.8% | 69.2 ± 6.1% | > 100 µM | 89.4 ± 2.7% | 89.7 ± 3.1% | 81 ± 3.1% | 81 ± 2.2% | 66 ± 0.1% | > 100 µM
Cc1cccc(C(C)(C)C)c1NC(=O)Nc1nc(C)c(O)c(C)c1C [Compound 16-4, 1-(2-tert-butyl-6-methylphenyl)-3-(5-hydroxy-3,4,6-trimethylpyridin-2-yl)urea] | 34.3% | 76.6 ± 6.9% | 76.8 ± 5% | 74.7 ± 6% | 62.1 ± 2.9% | 43.6 ± 1.8% | 34.7 µM | 95 ± 2.9% | 91.2 ± 1.9% | 91.3 ± 1.2% | 85.4 ± 0.2% | 75.5 ± 1.7% | > 100 µM
Cc1nc(NC(=O)Nc2cccc3ccccc23)c(C)c(C)c1O [Compound 16-5, 1-(5-hydroxy-3,4,6-trimethylpyridin-2-yl)-3-(naphthalen-1-yl)urea] | 20.2% | 105 ± 1.1% | 94.3 ± 2.1% | 78.6 ± 10.1% | 73.4 ± 5.6% | 76.7 ± 1.1% | > 100 µM | 88.1 ± 1.9% | 85.4 ± 6.4% | 90.9 ± 1.2% | 88.5 ± 2.8% | 79.6 ± 2.7% | > 100 µM
Cc1nc(NC(=O)NS(=O)(=O)c2ccccc2)c(C)c(C)c1O [Compound 16-6, N-((5-hydroxy-3,4,6-trimethylpyridin-2-yl)carbamoyl)benzenesulfonamide] | 17.5% | 90 ± 3.5% | 85.4 ± 0.9% | 76 ± 7.2% | 77.9 ± 3.5% | 53.6 ± 2.5% | > 100 µM | 91.6 ± 2.6% | 94.3 ± 2.6% | 85.8 ± 2.7% | 83.5 ± 1.1% | 84.9 ± 2% | > 100 µM
CCCCNC(=S)Nc1nc(C)c(O)c(C)c1C [Compound 18-1, 1-butyl-3-(5-hydroxy-3,4,6-trimethylpyridin-2-yl)thiourea] | -19.9% | 93.5 ± 3.4% | 95.2 ± 1.7% | 96.9 ± 1.4% | 96.5 ± 2.3% | 60.3 ± 0.5% | > 100 µM | 95.4 ± 0.6% | 94.9 ± 1.2% | 92.9 ± 0.6% | 91 ± 0.9% | 55 ± 1.1% | > 100 µM
Cc1nc(NC(=S)NC2CCCCC2)c(C)c(C)c1O [Compound 18-3, 1-cyclohexyl-3-(5-hydroxy-3,4,6-trimethylpyridin-2-yl)thiourea] | ≥ 50% | 90.9 ± 5.1% | 80.5 ± 10.4% | 66.8 ± 6.2% | 67 ± 5% | 51.3 ± 6.7% | > 100 µM | 88.8 ± 7% | 93.1 ± 1% | 97.6 ± 1.3% | 87.7 ± 2% | 84.3 ± 1.5% | > 100 µM
